Structures can show the parent of a compound that is named as a salt.
Each compound was assayed on NQO1 specific enzyme activity in BEAS-2B cells (assay: BEAS-2B NQO1 MTT assay). Conditions: Homo sapiens, BEAS-2B, 48 h, NQO1 specific enzyme activity induction in BEAS-2B cells, 48 hours; read-out: EC50.
Assay type: cell-based
Summary of the method: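 BEAS-2B cells exposed to compound 48 h at 37° C, 5% CO2, then lysed. NQO1 activity read kinetically in lysate with MTT cocktail (absorbance 570 nm, 30 min); Cell Titer Glo run on a lysate aliquot. pEC50 from ΔOD/min versus log concentration, 3-parameter fit.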
`Cc1c(C(CC(=O)O)c2ccc3c(c2)C(N2Cc4cnccc4OC(C)(C)C2)CC3)ccc2c1nnn2C` (stereo not drawn) [Example 48, 3-(1,4-Dimethyl-1H-benzo[d][1,2,3]triazol-5-yl)-3-(3-(2,2-dimethyl-2,3-dihydropyrido[3,4-f][1,4]oxazepin-4(5H)-yl)-2,3-dihydro-1H-inden-5-yl)propanoic Acid, Formic Acid Salt] was tested, and the EC50 was 0.01 to 0.1 µM. Work on `Cc1c(C(c2ccc3c(c2)C(N2Cc4cccnc4O[C@@H](C)C2)CC3)C(C)(C)C(=O)O)ccc2c1nnn2C` (stereo partly drawn) [Example 49, 3-(1,4-Dimethyl-1H-benzo[d][1,2,3]triazol-5-yl)-2,2-dimethyl-3-(3-((S)-2-methyl-2,3-dihydropyrido[3,2-f][1,4]oxazepin-4(5H)-yl)-2,3-dihydro-1H-inden-5-yl)propanoic Acid, Formic Acid Salt] yielded an EC50 of 0.01 to 0.1 µM. In the case of `CC[C@@H]1CN(C2CCc3ccc(C(CC(=O)O)c4ccc5c(nnn5C)c4C)cc32)Cc2ccccc2O1` (stereo partly drawn) [Example 50, 3-(1,4-Dimethyl-1H-benzo[d][1,2,3]triazol-5-yl)-3-(3-((R)-2-ethyl-2,3-dihydrobenzo[f][1,4]oxazepin-4(5H)-yl)-2,3-dihydro-1H-inden-5-yl)propanoic Acid, Formic Acid Salt], the EC50 is reported as 0.01 to 0.1 µM. Work on `Cc1c(C(CC(=O)O)c2ccc3c(c2)C(N2Cc4cccnc4OC(C)(C)C2)CC3)ccc2c1nnn2C` (stereo not drawn) [Example 51] yielded an EC50 of 0.01 to 0.1 µM. Compound `COc1cc(C(CC(=O)O)c2ccc3c(c2)C(N2CCOc4ccccc4C2)CC3)c(C)c2nnn(C)c12` (stereo not drawn) [Example 52, 3-(3-(2,3-Dihydrobenzo[f][1,4]oxazepin-4(5H)-yl)-2,3-dihydro-1H-inden-5-yl)-3-(7-methoxy-1,4-dimethyl-1H-benzo[d][1,2,3]triazol-5-yl)propanoic Acid, Formic Acid Salt] has an EC50 of 0.01 to 0.1 µM. In the case of `Cc1c(C(CC(=O)O)c2ccc3c(c2)C(N2Cc4ccccc4O[C@H](C)C2)CC3)ccc2c1nnn2C` (stereo partly drawn) [Example 53, 3-(1,4-Dimethyl-1H-benzo[d][1,2,3]triazol-5-yl)-3-(3-((R)-2-methyl-2,3-dihydrobenzo[f][1,4]oxazepin-4(5H)-yl)-2,3-dihydro-1H-inden-5-yl)propanoic Acid], the EC50 is reported as 0.1 to 1 µM. `Cc1c(C(c2ccc3c(c2)C(N2CCOc4ncccc4C2)CC3)C(C)(C)C(=O)O)ccc2c1nnn2C` (stereo not drawn) [Example 54, 3-(3-(2,3-Dihydropyrido[3,2-f][1,4]oxazepin-4(5H)-yl)-2,3-dihydro-1H-inden-5-yl)-3-(1,4-dimethyl-1H-benzo[d][1,2,3]triazol-5-yl)-2,2-dimethylpropanoic Acid, Formic Acid Salt, Formic Acid Salt] showed an EC50 of 0.1 to 1 µM. Work on `COc1cc(C(CC(=O)O)c2ccc3c(c2)C(N2Cc4cccnc4OC(C)(C)C2)CC3)cc2nnn(C)c12` (stereo not drawn) [Example 55, 3-(3-(2,2-Dimethyl-2,3-dihydropyrido[3,2-f][1,4]oxazepin-4(5H)-yl)-2,3-dihydro-1H-inden-5-yl)-3-(7-methoxy-1-methyl-1H-benzo[d][1,2,3]triazol-5-yl)propanoic Acid, Formic Acid Salt] yielded an EC50 of 0.1 to 1 µM. For `Cc1c(C(CC(=O)O)c2ccc3c(c2)C(N2Cc4ccccc4O[C@@H](C)C2)CC3)ccc2c1nnn2C` (stereo partly drawn) [Example 56, 3-(1,4-Dimethyl-1H-benzo[d][1,2,3]triazol-5-yl)-3-(3-((S)-2-methyl-2,3-dihydrobenzo[f][1,4]oxazepin-4(5H)-yl)-2,3-dihydro-1H-inden-5-yl)propanoic Acid, Formic Acid Salt], the EC50 was 0.1 to 1 µM. `CC[C@@H]1CN(C2CCc3ccc(C(CC(=O)O)c4ccc5c(nnn5C)c4C)cc32)Cc2cnccc2O1` (stereo partly drawn) [Example 57, 3-(1,4-Dimethyl-1H-benzo[d][1,2,3]triazol-5-yl)-3-(3-((R)-2-ethyl-2,3-dihydropyrido[3,4-f][1,4]oxazepin-4(5H)-yl)-2,3-dihydro-1H-inden-5-yl)propanoic Acid, Formic Acid Salt] showed an EC50 of 0.1 to 1 µM. With `Cc1c(C(CC(=O)O)c2ccc3c(c2)C(N2CCOc4ccccc4C2)CC3)ccc2c1nnn2C` (stereo not drawn) [Example 58, 3-(3-(2,3-Dihydrobenzo[f][1,4]oxazepin-4(5H)-yl)-2,3-dihydro-1H-inden-5-yl)-3-(1,4-dimethyl-1H-benzo[d][1,2,3]triazol-5-yl)propanoic Acid, Formic Acid Salt] the EC50 was 0.1 to 1 µM. In the case of `Cc1cc(C#N)ccc1C(CC(=O)O)c1ccc2c(c1)C(N1Cc3cccnc3OC(C)(C)C1)CC2` (stereo not drawn) [Example 59, 3-(4-Cyano-2-methylphenyl)-3-(3-(2,2-dimethyl-2,3-dihydropyrido[3,2-f][1,4]oxazepin-4(5H)-yl)-2,3-dihydro-1H-inden-5-yl)propanoic Acid, Formic Acid Salt], the EC50 is reported as 0.1 to 1 µM. Work on `Cc1cc(F)ccc1C(CC(=O)O)c1ccc2c(c1)C(N1Cc3cccnc3OC(C)(C)C1)CC2` (stereo not drawn) [Example 60, 3-(3-(2,2-Dimethyl-2,3-dihydropyrido[3,2-f][1,4]oxazepin-4(5H)-yl)-2,3-dihydro-1H-inden-5-yl)-3-(4-fluoro-2-methylphenyl)propanoic Acid, Formic Acid Salt] yielded an EC50 of 0.1 to 1 µM. `Cc1c(C(CC(=O)O)c2ccc3c(c2)C(N2Cc4cccnc4O[C@H](C)C2)CC3)ccc2c1nnn2C` (stereo partly drawn) [Example 61, 3-(1,4-Dimethyl-1H-benzo[d][1,2,3]triazol-5-yl)-3-(3-((R)-2-methyl-2,3-dihydropyrido[3,2-f][1,4]oxazepin-4(5H)-yl)-2,3-dihydro-1H-inden-5-yl)propanoic Acid, Formic Acid Salt] showed an EC50 of 1 to 10 µM. Compound `Cn1nnc2cc(C(CC(=O)O)c3ccc4c(c3)C(N3Cc5cccnc5OC(C)(C)C3)CC4)ncc21` (stereo not drawn) [Example 62, 3-(3-(2,2-Dimethyl-2,3-dihydropyrido[3,2-f][1,4]oxazepin-4(5H)-yl)-2,3-dihydro-1H-inden-5-yl)-3-(3-methyl-3H-[1,2,3]triazolo[4,5-c]pyridin-6-yl)propanoic Acid, Formic Acid Salt] has an EC50 of 1 to 10 µM. Compound `CCCc1cn(CCC(CC(=O)O)c2ccc3c(c2)C(N2Cc4ccccc4OC(C)(C)C2)CC3)nn1` (stereo not drawn) [Example 63, 3-(3-(2,2-Dimethyl-2,3-dihydrobenzo[f][1,4]oxazepin-4(5H)-yl)-2,3-dihydro-1H-inden-5-yl)-5-(4-propyl-1H-1,2,3-triazol-1-yl)pentanoic Acid, Trifluoroacetic Acid Salt] has an EC50 of 1 to 10 µM. For `CCn1nnc(CCC(c2ccc3c(c2)C(N2Cc4ccccc4OC(C)(C)C2)CC3)C(C)(C)C(=O)O)n1` (stereo not drawn) [Example 64, 3-(3-(2,2-dimethyl-2,3-dihydrobenzo[f][1,4]oxazepin-4(5H)-yl)-2,3-dihydro-1H-inden-5-yl)-5-(2-ethyl-2H-tetrazol-5-yl)-2,2-dimethylpentanoic Acid, Trifluoroacetic Acid Salt], the EC50 was 0.01 to 0.1 µM. `CCCc1cn(CCC(c2ccc3c(c2)C(N2Cc4ccccc4OC(C)(C)C2)CC3)C(C)(C)C(=O)O)nn1` (stereo not drawn) [Example 65, 3-(3-(2,2-Dimethyl-2,3-dihydrobenzo[f][1,4]oxazepin-4(5H)-yl)-2,3-dihydro-1H-inden-5-yl)-2,2-dimethyl-5-(4-propyl-1H-1,2,3-triazol-1-yl)pentanoic Acid, Trifluoroacetic Acid Salt] was tested, and the EC50 was 0.01 to 0.1 µM. `Cc1c(C(CC(=O)O)c2ccc3c(c2)C(N2Cc4ccccc4O[C@H](C)C2)CCC3)ccc2c1nnn2C` (stereo partly drawn) [Example 66, 3-(1,4-Dimethyl-1H-benzo[d][1,2,3]triazol-5-yl)-3-(8-((R)-2-methyl-2,3-dihydrobenzo[f][1,4]oxazepin-4(5H)-yl)-5,6,7,8-tetrahydronaphthalen-2-yl)propanoic Acid] was tested, and the EC50 was 0.1 to 1 µM. `Cc1c([C@H](c2ccc3c(c2)[C@H](N2Cc4cnccc4OC(C)(C)C2)CC3)C(C)(C)C(=O)O)ccc2c1nnn2C` [Example 86, 3-(1,4-Dimethyl-1H-benzo[d][1,2,3]triazol-5-yl)-3-(3-(2,2-dimethyl-2,3-dihydropyrido[3,4-f][1,4]oxazepin-4(5H)-yl)-2,3-dihydro-1H-inden-5-yl)-2,2-dimethylpropanoic Acid] showed an EC50 of less than 0.001 µM. Compound `CC[C@@H]1CN(C2CCc3ccc(C(CCc4cn(CC)nn4)C(C)(C)C(=O)O)cc32)Cc2cnccc2O1` (stereo partly drawn) [Example 87, 5-(1-Ethyl-1H-1,2,3-triazol-4-yl)-3-(3-((R)-2-ethyl-2,3-dihydropyrido[3,4-f][1,4]oxazepin-4(5H)-yl)-2,3-dihydro-1H-inden-5-yl)-2,2-dimethylpentanoic Acid] has an EC50 of 0.01 to 0.1 µM.
